Source: patent US11191773B2, “Methods of treatment for bacterial infections” (President and Fellows of Harvard College, priority 2017, dated 2021)
Entries after “also recorded” stand apart in the source; their conditions may differ.

Tests used:
[1] = system: E. coli strain ATCC 25922; assay: Neutropenic mouse thigh infection efficacy; type: in vivo
Experimental: Female CD-1 mice from Charles River Laboratories were allowed to acclimate for 5 days prior to start of study. Animals were housed four per cage with free access to food and water. Mice received two doses of cyclophosphamide on days −4 and −1 with 150 mg/kg and 100 mg/kg delivered IP, respectively. All procedures were performed to NeoSome IACUC policies and guidelines as well as OLAW standards.
E. coli strain ATCC 25922 was prepared for infection from an overnight plate culture. A portion of the plate was resuspended in sterile saline and adjusted to an OD of 0.15 at 625 nm. The adjusted bacterial suspension was further diluted to target an infecting inoculum of 1.5×10^5 CFU/mouse, the actual inoculum size for E. coli was 1.45×10^5 CFU/mouse. Plate counts of the inoculum was performed to confirm inoculum concentration.
Mice were inoculated with 100 μL of the prepared bacterial suspension via intramuscular injection into the right rear thigh.
Beginning at two hours post infection, mice were dosed with test agents subcutaneously at 10 mL/kg. A second dose of test agents was delivered at 6 hours post infection. For co-administered therapy, test agents were delivered separately at two different injection sites. Four animals were dosed per group. One group of four mice were euthanized at initiation of therapy (T=2 h) and CFUs determined. All remaining mice were euthanized at 26 hours post infection. At termination, thighs were aseptically excised, weighed, and homogenized to a uniform consistency in 2 mL of sterile saline. The homogenate was serially diluted and plated on bacterial growth media. The CFUs were enumerated after overnight incubation. The average and standard deviations for each group were determined.
Neutropenic mice infected with E. coli were treated with novobiocin, polymyxin B, or a combination of the two for the evaluation of efficacy is a thigh infection model.

[2] = system: Gram-negative pathogens; assay: Checkerboard microdilution assays between polymyxin B and novobiocin (FIG. 1A-1F); type: cell-based; conditions: six strains of FIG. 1A-1F, 37° C. for 24 h
Experimental: Checkerboard data are representative of at least three biological replicates.
Checkerboard microdilution assays between polymyxin B and novobiocin were performed in wild-type strains (unless otherwise noted) grown at 37° C. for 24 h. Checkerboard data (FIG. 1A-1F) are representative of at least three biological replicates. The following strains were tested: A) Wild-type Escherichia coli, ATCC 25922; B) Wild-type Enterobacter cloacae; ATCC 13047) Wild-type Klebsiella pneumoniae, ATCC 700721; D) Wild-type Pseudomonas aeruginosa, ATCC 15692 (PAO1); E) Wild-type Acinetobacter baumannii, ATCC 19606; F) novobiocin-resistant Acinetobacter baumannii, ATCC 19606 gyrB(R150C).

[3] = system: A. baumannii (ATCC: 19606) mutant that is novobiocin and polymyxin-resistant; assay: Checkerboard microdilution assay, polymyxin-resistant strain; type: cell-based; conditions: 37° C. for 24 h
Experimental: The effect of novobiocin/polymyxin combination was further assessed in polymyxin-resistant strains using checkerboard microdilution assays. In these assays, polymyxin-resistant strains (E. coli (clinical isolate from Brigham and Women's Hospital); A. baumannii (ATCC: 19606) mutant that is novobiocin and polymyxin-resistant; and K. pneumoniae (clinical isolate from Brigham and Women's Hospital)) were grown at 37° C. for 24 h.

[4] = system: novobiocin-resistant A. baumannii 19606 gyrB(R150C) point mutant (Novo^R); type: cell-based
[5] = system: K. pneumoniae, A. baumannii, P. aeruginosa, E. coli; assay: Log(CFU/mL) vs. time curves (FIG. 3); type: cell-based; conditions: Novobiocin 50-130 μg/mL, Polymyxin B 1.4-2.0 μg/mL
Experimental: FIGS. 3A-3D are a set of plots of colony forming units/ml (CFU/ml) over time when untreated, or treated with polymyxin B, novobiocin, or a combination of both. FIG. 3A is a growth curve of Klebsiella pneumoniae. FIG. 3B is a growth curve of Acinetobacter baumannii Novo^R. FIG. 3C is a plot of CFU/ml over time of Pseudomonas aeruginosa. FIG. 3D is a growth curve of Escherichia coli.
Log(CFU/mL) vs. time curves. Overnight cultures were diluted 1:100 and grown at 37° C., 220 rpm until OD600=0.1. This culture was transferred to four sterile 5 mL tubes and treated with polymyxin B, novobiocin, polymyxin B+novobiocin, or no drug and incubated at 37° C., 220 rpm. At each timepoint, 10 μL from each condition was log10 diluted to 10^−7 and subsequently plated on LB Miller agar containing no antibiotic. Time=0 h represents the CFU/mL count immediately after the initial treatment. Y-values of zero indicate fewer than 10,000 CFUs (limit of detection). Strains are identical to those used in FIG. 1. K. pneumoniae: [Novobiocin]=130 μg/mL, [Polymyxin B]=1.4 μg/mL; A. baumannii: [Novobiocin]=100 μg/mL, [Polymyxin B]=2.0 μg/mL; P. aeruginosa: [Novobiocin]=100 μg/mL, [Polymyxin B]=2.0 μg/mL; E. coli: [Novobiocin]=50 μg/mL, [Polymyxin B]=2.0 μg/mL.

[6] = Novobiocin 200 mg/kg (total 400) BID/SC

CO[C@@H]1[C@@H](OC(N)=O)[C@@H](O)[C@H](Oc2ccc3c(O)c(NC(=O)c4ccc(O)c(CC=C(C)C)c4)c(=O)oc3c2C)OC1(C)C [Novobiocin, novobiocin]
change in log10 CFU/g of thigh from 2 hour control [1, 6]: 3.58 log10 CFU/g of thigh
change in log10 CFU/g of thigh from 26 hour controls [1, 6]: −0.51 log10 CFU/g of thigh
activity against this isolate ([1]; Novobiocin delivered at 200 mg/kg): did not demonstrate significant activity
Average log10 CFU/g of thigh ([1]; neutropenic CD-1 mice, Novobiocin 200 mg/kg (total 400) BID/SC, 26 hours post infection): 9.12 log10 CFU/g of thigh
synergy with polymyxin B [2]: synergizes with polymyxin B to kill Gram-negative pathogens in vitro
synergy with polymyxin B [3]: synergizes with polymyxin B
synergy with PMBN ([4]; Novo^R A. baumannii): resistant to the same combination; also recorded: same synergy but at higher [novobiocin]
resistance of gyrB(R150C) point mutant towards novobiocin ([4]; relative to wild type): 300 fold
killing by combination with polymyxin B, CFU/mL over time [5]: synergy is bactericidal
